The values below come from US20250257034A1, “INDOLE DERIVATIVES AS SEROTONERGIC AGENTS USEFUL FOR THE TREATMENT OF DISORDERS RELATED THERETO” (priority 2023, published 2025).

The term IC50 denotes the concentration that gives 50% inhibition. A high value points to a need for much substance.

Read-outs that look alike come from different tables or passages of the source.

In one data set the target is T1, human 5-HT1A receptor (Homo sapiens, UniProt P08908).
T1 sequence (P08908 1-422): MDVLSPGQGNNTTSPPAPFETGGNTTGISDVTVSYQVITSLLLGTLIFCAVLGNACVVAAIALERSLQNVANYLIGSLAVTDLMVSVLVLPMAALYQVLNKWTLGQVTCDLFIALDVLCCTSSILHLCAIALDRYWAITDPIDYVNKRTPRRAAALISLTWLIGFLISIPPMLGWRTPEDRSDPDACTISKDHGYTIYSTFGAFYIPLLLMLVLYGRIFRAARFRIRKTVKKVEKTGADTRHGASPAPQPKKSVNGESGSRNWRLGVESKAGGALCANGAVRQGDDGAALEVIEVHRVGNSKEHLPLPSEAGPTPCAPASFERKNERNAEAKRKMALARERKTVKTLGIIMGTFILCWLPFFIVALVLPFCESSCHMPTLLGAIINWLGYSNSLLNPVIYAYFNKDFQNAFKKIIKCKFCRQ
In words: Human 5-HT1A radioligand binding assay ([3H]-8-Hydroxy-DPAT). More on the design: expressed in transfected cells; host or cells: HTR1A&Gα15-CHO. As for the experimental part: The objective of this study was to evaluate the binding properties of test compounds on 5-hydroxytryptamine receptor 1A (5-HT1A).
1. The assay buffer was prepared following Table 21 below.
2. 8 doses of reference and test compounds were prepared starting from 10 mM stock solution as required by 5-fold serial dilutions with 100% (v/v) DMSO.
3. UniFilter-96 GF/B plate was pretreated: • i. 50 μl/well of 0.5% (v/v) PEI was added to UniFilter-96 G F/B plates. The plates were sealed and incubated at 4° C. for 3 hrs. • ii. After incubation, the plates were washed 3 times with ice-cold wash buffer (50 mM Tris, pH7.4).
4. Assay plate was prepared: • i. Cell membrane was diluted with assay buffer and 100 μl/well was added to 96 round well plates to reach a concentration of 20 μg/well. • ii. 8 concentrations of reference or test compounds were prepared and 50 μl/well was added to 96 round deep well plates. • iii. [3H]-8-Hydroxy-DPAT was diluted with assay buffer to 2 nM (4×final concentration) and 50 μl/well was added to 96 round well plates.
5. The plate was centrifuged at 1000 rpm for 30 secs and then agitated at 600 rpm, R.T. for 5 min.
6. The plates were sealed, and the plate was incubated at 27° C. for 90 min.
7. The incubation was stopped by vacuum filtration onto GF/B filter plates followed by 4 times washing with ice-cold wash buffer (50 mM Tris, pH7.4).
9. The filter plates were sealed and 40 μl/well of scintillation cocktail was added.
10. The plate was read by using a Microbeta^2 microplate counter.
1. For reference and test compounds, the results were expressed as % Inhibition, using the normalization equation: N=100-100x(U-C2)/(C1-C2), where U is the unknown value, C1 is the average of high controls, and C2 is the average of low controls.
2. The IC50 was determined by fitting percentage of inhibition as a […] of compound concentrations with Hill equation using XLfit.
The objective of this study was to evaluate the binding properties of test compounds on 5-hydroxytryptamine receptor 1A (5-HTA).
1. The assay buffer was prepared following Table 50 below.
3. UniFilter-96 G FIB plate was pretreated: • i. 50 μl/well of 0.5% (v/v) PEI was added to UniFilter-96 G FIB plates. The plates were sealed and incubated at 4° C. for 3 hrs. • ii. After incubation, the plates were washed 3 times with ice-cold wash buffer (50 mM Tris, pH7.4).
6. The plates were sealed and the plate was incubated at 27° C. for 90 min.

Data set [1] is described as follows: Pharmacokinetic studies in rat (i.v.). The format is in vivo. The settings on record: male, Sprague-Dawley, rat, plasma, dose 1.37 mg/kg (I-71, I-128), 1.33 mg/kg ((S) I-67); for concentration at 0.25 h / concentration at 1 h / concentration at 4 h: intravenous, rat i.v.; for AUC(0-t) / half-life: iv, rat plasma, i.v.; for half-life: estimated from 2 points only. Here is the method:
Animals: Male Sprague-Dawley rats (˜225-350 g) from Charles River Labs were acclimatized for a minimum of 5 days prior to start of study procedures. Body weights were recorded on the day of dosing.
Any abnormalities were documented including presence/absence of wet dog shakes/back muscle contractions (WDS/BMC).
Dosing: Formulations were administered intravenously (i.v.) via the tail vein using a 25 G needle connected to a 1 cc syringe.
The Compounds of Formula (I) were freshly prepared at the appropriate concentrations in 5% Tween-80 in saline.
Blood collection time (h): 0.25, 1 and 4.
Volume/time-point: ˜0.25 mL […] (saphenous vein).
Instrumentation: AB Sciex QTRAP 4000 or 6500 MS/MS system equipped with an LC system with a binary pump, a solvent degasser, a thermostatted column compartment and a multiplate autosampler.
Analysis software: Phoenix® WinNonlin® 8.3 (Pharsight, Certara, Mountainview, CA).
Analysis methods: non-compartmental analysis, linear up/log down trapezoidal rule.
PK parameters: t1/2 and AUC0-tlast were be estimated.
Volume/time-point: ˜0.25 mL (saphenous vein).
PK parameters: t1/2 and AUC0-tlast were estimated.

Where [2] appears, read: first individual rat (R01/R04), read-out: Plasma concentration.
Setting [3] is: mean of 3 rats, read-out: Plasma concentration, Mean ± SD.
Where [4] appears, read: second individual rat (R02/R05), read-out: Plasma concentration.
Where [5] appears, read: third individual rat (R03/R06), read-out: Plasma concentration.

`COc1ccc2[nH]cc(CCN3CC[C@@H](OC)C3)c2c1` [(R) I-66, (R)-5-methoxy-3-(2-(3-methoxypyrrolidin-1-yl)ethyl)-1H-indole] displayed an IC50 on human 5-HT1A receptor of 22 nM.
On the same count and under the same terms, as for `COc1ccc2[nH]cc(CCN3CC[C@@H](OC(F)F)C3)c2c1` [(R) I-67, (R)-3-(2-(3-(Difluoromethoxy)pyrrolidin-1-yl)ethyl)-5-methoxy-1H-indole], the figure is 22 nM.
For `COc1ccc2[nH]cc(CCN3CC[C@H](OC(F)F)C3)c2c1` [(S) I-67, (S)-3-(2-(3-(Difluoromethoxy)pyrrolidin-1-yl)ethyl)-5-methoxy-1H-indole], the concentration at 0.25 h in data set [1] (setting [2]) worked out at 413 ng/mL; in data set [1] (setting [3]), 436 ± 32.4 ng/mL; in data set [1] (setting [4]), 473 ng/mL; in data set [1] (setting [5]), 422 ng/mL. In addition, the concentration at 1 h turned out to be 172 ng/mL in data set [1] (setting [2]), 162 ± 9.07 ng/mL in data set [1] (setting [3]), 155 ng/mL in data set [1] (setting [4]) and 158 ng/mL in data set [1] (setting [5]). Moreover, the concentration at 4 h in data set [1] (setting [2]) was 5.35 ng/mL; in data set [1] (setting [3]) it was 6.96 ± 1.54 ng/mL; in data set [1] (setting [4]), 8.41 ng/mL; in data set [1] (setting [5]), 7.12 ng/mL. The AUC(0-t) in data set [1] (first individual rat (R01/R04), read-out: AUC0-tlast) is 470 ng·h/mL; in data set [1] (mean of 3 rats, read-out: AUC0-tlast, Mean ± SD) it was 484 ± 21.1 ng·h/mL; in data set [1] (second individual rat (R02/R05), read-out: AUC0-tlast) it was 508 ng·h/mL; in data set [1] (third individual rat (R03/R06), read-out: AUC0-tlast), 472 ng·h/mL. Further, the half-life in data set [1] (first individual rat (R01/R04), read-out: Apparent t1/2 (converted)) was 35.9 min; in data set [1] (mean of 3 rats, read-out: Apparent t1/2, Mean ± SD (converted)), 38.2 ± 2.02 min; in data set [1] (second individual rat (R02/R05), read-out: Apparent t1/2 (converted)), 39.8 min; in data set [1] (third individual rat (R03/R06), read-out: Apparent t1/2 (converted)), 38.8 min. For the same compound, the IC50 on human 5-HT1A receptor came to 5 nM.
